Here are results for 6 compounds from patent publication US11945799B2, “4-ethynylpyridine derivatives useful as GCN2 inhibitors” (IP2IPO INNOVATIONS LIMITED, priority 2020, dated 2024).

One series deals with ZAK (Homo sapiens, UniProt Q9NYL2). The conditions noted are these: KINOMEscan, kinase ZAK; as reported in Nakamura et al (2018); cited from earlier work.
The subject of series [1] is GCN2. As to conditions: KINOMEscan, kinase GCN2; as reported in Nakamura et al (2018); cited from earlier work.
A further series deals with T1, MAP2K5 (Homo sapiens, UniProt Q13163).
T1 sequence (Q13163 1-448): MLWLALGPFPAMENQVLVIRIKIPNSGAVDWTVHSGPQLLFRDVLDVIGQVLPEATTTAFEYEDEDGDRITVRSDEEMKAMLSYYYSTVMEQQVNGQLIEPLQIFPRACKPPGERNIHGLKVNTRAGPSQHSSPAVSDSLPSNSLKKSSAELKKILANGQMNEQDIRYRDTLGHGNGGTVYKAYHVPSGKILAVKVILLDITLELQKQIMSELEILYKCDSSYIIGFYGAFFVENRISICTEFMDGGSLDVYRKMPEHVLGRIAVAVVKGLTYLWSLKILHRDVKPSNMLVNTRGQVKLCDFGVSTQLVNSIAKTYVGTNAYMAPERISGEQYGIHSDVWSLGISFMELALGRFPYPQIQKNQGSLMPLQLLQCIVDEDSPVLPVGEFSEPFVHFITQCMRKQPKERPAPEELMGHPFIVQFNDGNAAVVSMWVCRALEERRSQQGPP
The conditions noted are these: KINOMEscan, kinase MAP2K5; as reported in Nakamura et al (2018); cited from earlier work.

For series [2], the target named is T2, full-length human GCN2 enzyme (Homo sapiens, UniProt Q9P2K8).
T2 construct: purchased Carna Bioscience
T2 sequence (Q9P2K8 whole entry): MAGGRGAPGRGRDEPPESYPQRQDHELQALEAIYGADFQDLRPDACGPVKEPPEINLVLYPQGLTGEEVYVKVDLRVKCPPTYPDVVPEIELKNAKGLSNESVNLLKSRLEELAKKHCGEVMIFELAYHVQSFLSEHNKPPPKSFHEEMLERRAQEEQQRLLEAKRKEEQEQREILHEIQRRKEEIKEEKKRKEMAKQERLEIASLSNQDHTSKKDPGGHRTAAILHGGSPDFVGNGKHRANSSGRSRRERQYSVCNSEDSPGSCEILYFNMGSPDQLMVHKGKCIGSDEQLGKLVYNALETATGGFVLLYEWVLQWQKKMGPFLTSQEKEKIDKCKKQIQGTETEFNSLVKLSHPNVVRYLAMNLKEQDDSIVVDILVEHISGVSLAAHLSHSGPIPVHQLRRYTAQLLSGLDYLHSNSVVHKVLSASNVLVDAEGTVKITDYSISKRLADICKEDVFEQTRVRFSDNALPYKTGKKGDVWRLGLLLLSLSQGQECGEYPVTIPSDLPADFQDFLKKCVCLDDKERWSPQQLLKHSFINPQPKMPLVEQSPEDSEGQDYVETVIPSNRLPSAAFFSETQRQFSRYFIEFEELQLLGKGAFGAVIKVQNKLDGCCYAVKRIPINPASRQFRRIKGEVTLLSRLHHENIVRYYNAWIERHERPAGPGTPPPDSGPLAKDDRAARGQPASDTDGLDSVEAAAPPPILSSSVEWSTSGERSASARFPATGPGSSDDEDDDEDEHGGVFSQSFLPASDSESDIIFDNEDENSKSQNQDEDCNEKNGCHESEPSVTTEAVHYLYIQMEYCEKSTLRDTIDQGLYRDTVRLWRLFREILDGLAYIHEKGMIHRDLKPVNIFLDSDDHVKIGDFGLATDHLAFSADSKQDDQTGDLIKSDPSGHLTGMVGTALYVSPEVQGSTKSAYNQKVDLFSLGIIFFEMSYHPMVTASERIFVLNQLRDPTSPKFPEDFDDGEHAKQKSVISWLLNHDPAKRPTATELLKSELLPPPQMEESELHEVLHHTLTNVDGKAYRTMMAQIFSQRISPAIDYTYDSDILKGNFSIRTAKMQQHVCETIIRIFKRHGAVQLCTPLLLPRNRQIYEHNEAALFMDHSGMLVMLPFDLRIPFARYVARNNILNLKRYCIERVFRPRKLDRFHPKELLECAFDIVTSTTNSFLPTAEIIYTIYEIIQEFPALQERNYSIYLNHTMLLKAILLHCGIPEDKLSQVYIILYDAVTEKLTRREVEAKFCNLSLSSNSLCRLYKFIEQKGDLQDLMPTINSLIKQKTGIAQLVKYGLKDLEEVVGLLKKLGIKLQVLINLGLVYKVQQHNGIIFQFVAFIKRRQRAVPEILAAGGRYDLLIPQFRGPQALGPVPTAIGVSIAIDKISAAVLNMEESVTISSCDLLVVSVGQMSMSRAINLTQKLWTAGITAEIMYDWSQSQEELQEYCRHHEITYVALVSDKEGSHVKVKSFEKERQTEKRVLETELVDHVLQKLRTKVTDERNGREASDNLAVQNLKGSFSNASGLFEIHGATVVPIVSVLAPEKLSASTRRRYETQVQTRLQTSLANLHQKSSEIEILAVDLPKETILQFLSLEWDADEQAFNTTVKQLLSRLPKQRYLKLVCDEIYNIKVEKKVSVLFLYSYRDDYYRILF
As to the kind of experiment: GCN2 enzyme inhibition, LanthaScreen TR-FRET Kinase Activity assay (10 μM and 300 μM ATP). The conditions noted are these: for IC50 / Ki: mean of replicate assays. Format: biochemical. As for the experimental part:
Biological and Pharmacokinetic Testing (a) GCN2 Enzyme Inhibition (10 μM and 300 μM Assays) Assay Protocol Overview:
The inhibitory activity of the Example compounds towards GCN2 enzyme was measured according to the description below, using a LanthaScreen TR-FRET (Time Resolved Fluorescence Resonance Energy Transfer) Kinase Activity assay distributed by ThermoFisher Scientific.
The full-length human GCN2 enzyme (UniProt accession number Q9P2K8) was used for all experiments (Carna Bioscience). The TR-FRET pair was composed of GFP-eIF2α and LanthaScreen Terbium-labeled anti-peIF2α (pSer52) Antibody.
Each example compound was dissolved in DMSO (0.15 mM) and dispensed in a 384-well plate by a D300 dispenser (Tecan) to a final concentration range 3000-0.13 nM using the logarithmic dilution mode in 2 replicates. Full inhibition (3000 nM commercial reference inhibitor) and DMSO vehicle control wells were also included on the same plate. All volumes were normalized to the final DMSO concentration of 2% of the reaction volume. Next, 5 μL of H2O was added to each well of the plate.
The enzyme mixture was prepared to obtain the following concentrations: • GCN2—30 nM • unloaded tRNA—0.3 nM • HEPES (pH=7.0)—100 mM • MgCl2—20 mM; MnCl2—10 mM
The mixture was applied by adding 5 μL to each well of the plate. The enzyme and the tested compound were then incubated at room temperature for 20 min while shaking at 450 rpm.
The substrate mixture was prepared to obtain the following concentrations: • GFP-eIF2α—240 nM • ATP—900 μM or 30 μM • HEPES (pH=7.0)—50 mM • MgCl2—10 mM • MnCl2—5 mM.
The mixture was applied by adding 5 μL to each well of the plate. Thus, the final concentrations of the 15 μL reaction mixture were as follows: • GCN2—10 nM • unloaded tRNA—0.1 nM • GFP-eIF2α—80 nM • ATP—300 μM or 10 μM • HEPES (1 M, pH=7.0)—50 mM • MgCl2—10 mM • MnCl2—5 mM.
The reaction was allowed to proceed at room temperature for 30 min while shaking at 450 rpm.
The antibody mixture was prepared to obtain the following concentrations: • Na2EDTA·2H2O—40 mM, in TR-FRET Dilution Buffer (Life technologies) • Tb—anti-peIF2a antibodies—4 nM.
The mixture was applied by adding 15 μL to each well. The plate was then incubated at room temperature for 60 min while shaking at 450 rpm and then read using Tecan Spark reader using specific TR-FRET filters.
The analysis of the GFP/Tb fluorescence results was conducted with GraphPad Prism to determine IC50 for each of the example compounds using 4-parameter model: log(inhibitor) vs. response-variable slope. IC50 and K, values were calculated in the usual way. The assay was carried out between 1 and 15 times. The results in the table below are the mean results from replicate assays for the compound in question, where applicable.
In general terms: Time-resolved FRET reads energy transfer from a long-lived donor to a nearby acceptor.

A further series concerns the target STK10 (Homo sapiens, UniProt O94804). As to conditions: KINOMEscan, kinase STK10; as reported in Nakamura et al (2018); cited from earlier work.
Series [3] is described as follows: Kinetic solubility in PBS buffer pH 7.4. Format: physicochemical. As to conditions: for solubility kinetic at 90 min: aqueous buffer, kinetic from dmso stock, PBS buffer pH 7.4, 90 minutes at room temperature, from 10 mM DMSO stock. As for the experimental part: The kinetic solubility assay investigates a solubility based on the amount of material which remains in solution after a precipitation process. […] Assay is performed using Multiscreen Vacuum Manifold. A buffer of interest (in standard protocol PBS buffer at pH=7.4 is used) is spiked with stock solution and incubated for 90 minutes at room temperature. After that time solution/suspension is filtrated. The concentration of each compound is determined on the base of prepared calibration curve using UV-VIS spectrophotometry method. The assay is made in triplicate.
Buffer of interest: 0.24 g of KH2PO4, 1.44 g of Na2HPO4, 0.2 g of KCl and 8 g NaCl and dissolve in 1 L distilled H2O; adjust pH to appropriate value (pH 7.4). 190 μl of buffer of interest was dispensed into the wells of a 96 well filter plate, followed by 10 μl of compound (10 mM stock solution in DMSO). The plate was shaken gently at room temperature for 90 minutes at 500 rpm using a BioSan, Plate Shaker-Thermostat, PST-60 HL-4. After 90 minutes, the plate was filtered using a vacuum manifold and vacuum pump. 100 μl of each filtrate and 100 μl acetonitrile was transferred to a 96 well UV-visible light transparent plate and the UV-visible absorption spectrum was measured using a Biotek Synergy 2 multiplate reader from 250-500 nm, interval range 10 nm. The amount of test compound was calculated using a calibration curve prepared by serial dilution of compounds in equivalent amounts of DMSO and acetonitrile.

The target of a further series is off-target kinases. As to the kind of experiment: KINOMEscan kinase selectivity panel. The conditions noted are these: kinases other than those at <0.5%. Format: binding, human. As for the experimental part: (§1) Compounds were tested for activity against off-target kinases using the KINOMEscan™ screening platform, which employs a novel and proprietary active site-directed competition binding assay to quantitatively measure interactions between test compounds and hundreds of human kinases and disease relevant mutant variants.
(§2) For most assays, kinase-tagged T7 phage strains were grown in parallel in 24-well blocks in an E. coli host derived from the BL21 strain. E. coli were grown to log-phase and infected with T7 phage from a frozen stock (multiplicity of infection=0.4) and incubated with shaking at 32° C. until lysis (90-150 minutes). The lysates were centrifuged (6,000×g) and filtered (0.2 μm) to remove cell debris. The remaining kinases were produced in HEK-293 cells and subsequently tagged with DNA for qPCR detection. […] The liganded beads were blocked with excess biotin and washed with blocking buffer (SeaBlock (Pierce), 1% BSA, 0.05% Tween 20, 1 mM DTT) to remove unbound ligand and to reduce non-specific phage binding. […] Test compounds were prepared as 40× stocks in 100% DMSO and directly diluted into the assay. All reactions were performed in polypropylene 384-well plates in a final volume of 0.02 ml. […] The kinase concentration in the eluates was measured by qPCR.

The test system of series [4] is GCN2. As to the kind of experiment: KINOMEscan competition binding assay, GCN2. Details: species or system human. As to conditions: kinase GCN2. As for the experimental part:
as §1, §2

In a further series the target is T3, MEK5 (Homo sapiens, UniProt Q13163).
T3 construct: host or cells: E. coli BL21-derived (T7 phage) or HEK-293
T3 sequence (Q13163 1-448): T1 sequence (Q13163 1-448)
As to the kind of experiment: KINOMEscan competition binding assay, MEK5. As to conditions: kinase MEK5. As for the experimental part: as §1, §2

Where [5] appears, read: read-out: GCN2 IC50 (nM) 10 uM ATP, 10 uM ATP.
The mark [6] stands for this setting: read-out: GCN2 IC50 (nM) 300 uM ATP, 300 uM ATP.
The mark [7] stands for this setting: read-out: GCN2 Ki (nM) 10 uM ATP, 10 uM ATP.
[8] abbreviates: read-out: GCN2 Ki (nM) 300 uM ATP, 300 uM ATP.

Where two headings read alike, the source gives them in different places. A value given as a limit tells only on which side of the number the result lay.

Sequence of ZAK (Q9NYL2 whole entry): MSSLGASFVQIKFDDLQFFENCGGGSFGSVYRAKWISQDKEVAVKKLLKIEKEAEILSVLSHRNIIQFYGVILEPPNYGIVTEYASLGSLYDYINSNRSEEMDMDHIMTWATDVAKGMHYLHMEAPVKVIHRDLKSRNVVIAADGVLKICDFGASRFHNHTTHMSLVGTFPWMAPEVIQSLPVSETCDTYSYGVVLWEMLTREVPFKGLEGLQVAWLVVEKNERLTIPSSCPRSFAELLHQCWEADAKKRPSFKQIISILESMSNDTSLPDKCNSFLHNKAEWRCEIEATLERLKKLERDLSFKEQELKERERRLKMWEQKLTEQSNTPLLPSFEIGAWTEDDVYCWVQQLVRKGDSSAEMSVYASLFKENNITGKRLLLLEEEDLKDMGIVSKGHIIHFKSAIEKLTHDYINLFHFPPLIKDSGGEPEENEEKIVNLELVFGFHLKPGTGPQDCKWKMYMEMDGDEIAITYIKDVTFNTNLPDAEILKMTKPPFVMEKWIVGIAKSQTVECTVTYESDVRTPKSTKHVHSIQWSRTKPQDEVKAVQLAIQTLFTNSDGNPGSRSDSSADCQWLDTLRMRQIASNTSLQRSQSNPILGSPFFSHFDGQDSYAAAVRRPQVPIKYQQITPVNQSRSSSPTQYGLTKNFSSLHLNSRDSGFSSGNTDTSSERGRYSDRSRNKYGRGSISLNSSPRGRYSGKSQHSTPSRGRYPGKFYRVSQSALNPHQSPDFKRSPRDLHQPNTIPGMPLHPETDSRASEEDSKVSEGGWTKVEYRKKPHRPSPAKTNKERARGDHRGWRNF
Sequence of STK10 (O94804 whole entry): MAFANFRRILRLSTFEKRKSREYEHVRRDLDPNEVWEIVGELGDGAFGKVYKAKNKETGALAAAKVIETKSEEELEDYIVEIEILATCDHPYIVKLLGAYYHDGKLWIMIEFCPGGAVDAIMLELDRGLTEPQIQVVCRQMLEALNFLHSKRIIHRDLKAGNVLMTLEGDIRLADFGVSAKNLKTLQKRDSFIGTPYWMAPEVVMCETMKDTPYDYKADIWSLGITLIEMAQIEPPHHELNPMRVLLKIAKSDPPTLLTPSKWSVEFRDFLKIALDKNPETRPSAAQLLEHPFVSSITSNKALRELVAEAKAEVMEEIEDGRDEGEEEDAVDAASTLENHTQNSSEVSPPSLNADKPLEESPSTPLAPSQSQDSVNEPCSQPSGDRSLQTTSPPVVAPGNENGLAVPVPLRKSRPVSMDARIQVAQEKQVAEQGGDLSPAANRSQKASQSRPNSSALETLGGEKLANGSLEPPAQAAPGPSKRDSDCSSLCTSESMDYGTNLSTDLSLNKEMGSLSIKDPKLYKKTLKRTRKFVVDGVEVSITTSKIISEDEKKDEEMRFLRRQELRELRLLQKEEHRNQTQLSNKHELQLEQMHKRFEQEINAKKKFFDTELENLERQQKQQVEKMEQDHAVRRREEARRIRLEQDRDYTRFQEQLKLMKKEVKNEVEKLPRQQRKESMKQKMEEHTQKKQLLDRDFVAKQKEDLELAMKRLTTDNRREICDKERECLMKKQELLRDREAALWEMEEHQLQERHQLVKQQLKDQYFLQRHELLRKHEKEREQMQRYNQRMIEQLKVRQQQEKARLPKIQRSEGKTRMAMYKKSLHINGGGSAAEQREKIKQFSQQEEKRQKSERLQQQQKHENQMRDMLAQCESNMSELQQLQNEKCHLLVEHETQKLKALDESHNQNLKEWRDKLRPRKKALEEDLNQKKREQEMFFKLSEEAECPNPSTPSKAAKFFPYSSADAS

One may read the IC50 as the concentration that inhibits the measured activity by half. For orientation: Ki means a dissociation constant, usually derived from enzyme kinetics or from competition with a known ligand. In general, kinetic solubility refers to solubility judged after dilution from a stock solution rather than from solid. As to `COc1ncc(Cl)cc1S(=O)(=O)Nc1ccc(F)c(C#Cc2cnc(N)nc2)c1F` [Comp Ex 1, reference compound], the “% Control” value is recorded as less than 5% on ZAK, less than 0.5% in the series on GCN2 [1], less than 5% at MAP2K5 and less than 5% on STK10. Also, the 50% inhibitory concentration (IC50) in [2] (setting [5]) was 5.9 nM; in series [2] (setting [6]) it was 59.2 nM. The inhibitory constant (Ki) stood at 1.9 nM in series [2] (setting [7]) and 0.9 nM in series [2] (setting [8]). In addition, the solubility (kinetic) at 90 min in series [3] worked out at 4.7 µg/mL.
As to `COc1ncc(Cl)cc1S(=O)(=O)Nc1nccc(C#Cc2cnc(N)nc2)c1F` [Example 1, N-{4-[2-(2-aminopyrimidin-5-yl)ethynyl]-3-fluoropyridin-2-yl}-5-chloro-2-methoxypyridine-3-sulfonamide], the “Kinases with % Control <5%” value on off-target kinases is recorded as “None”. Also, the “GCN2 inhibitory activity (in words)” value in series [2] is “strong”. Besides, the figures for the IC50 in [2] (setting [5]) and in [2] (setting [6]) were 7.2 nM and 103 nM, respectively. Besides, the inhibition constant (Ki) in [2] (setting [7]) amounted to 2.3 nM; in series [2] (setting [8]) it was 1.6 nM. Besides, the “% Control” value in the series with GCN2 [4] is recorded as less than 0.5%. Further, the “kinetic solubility (in words)” value in [3] is on record as “good”. For the same compound, in [3], the kinetic solubility at 90 min was determined as 218 µg/mL.
As for `COc1ncc(Cl)cc1S(=O)(=O)Nc1nccc(C#Cc2cnc3[nH]ncc3c2)c1F` [Example 3, 5-chloro-N-[3-fluoro-4-(2-{1H-pyrazolo[3,4-b]pyridin-5-yl}ethynyl)pyridin-2-yl]-2-methoxypyridine-3-sulfonamide], the “% Control” value on MEK5 is reported as less than 5%; with GCN2 [4], less than 0.5%. The “GCN2 inhibitory activity (in words)” value in series [2] is “strong”. Moreover, the IC50 in series [2] (setting [5]) stood at 3.5 nM; in series [2] (setting [6]), 26.5 nM. Also, the Ki in [2] (setting [7]) stood at 1.1 nM; in [2] (setting [8]), 0.6 nM. In addition, in series [3], the “kinetic solubility (in words)” value is listed as “good”. For the same compound, the solubility (kinetic) at 90 min in series [3] worked out at 229 µg/mL.
As to `COc1ncc(Cl)cc1S(=O)(=O)Nc1nccc(C#Cc2cnc3[nH]c(=O)n(C)c3c2)c1F` [Example 36, 5-chloro-N-[3-fluoro-4-(2-{1-methyl-2-oxo-1H,2H,3H-imidazo[4,5-b]pyridin-6-yl}ethynyl)pyridin-2-yl]-2-methoxypyridine-3-sulfonamide], in series [2] (setting [6]), the half-maximal inhibitory concentration (IC50) stood at 182 nM. Besides, the Ki in [2] (setting [8]) amounted to 2.8 nM. The kinetic solubility at 90 min in series [3] is 240 µg/mL.
With `COc1ncc(Cl)cc1S(=O)(=O)Nc1nccc(C#Cc2cnc3[nH]nc(OC)c3c2)c1F` [Example 37, 5-chloro-N-[3-fluoro-4-(2-{3-methoxy-1H-pyrazolo[3,4-b]pyridin-5-yl}ethynyl)pyridin-2-yl]-2-methoxypyridine-3-sulfonamide], in [2] (setting [6]), the IC50 is 20.9 nM. Also, in series [2] (setting [8]), the inhibitory constant (Ki) was 0.3 nM. Moreover, the kinetic solubility at 90 min in series [3] was greater than 244 µg/mL.
As for `COc1ncc(Cl)cc1S(=O)(=O)Nc1nccc(C#Cc2cnc(N)c3nccnc23)c1F` [Example 38, N-[4-(2-{5-aminopyrido[3,4-b]pyrazin-8-yl}ethynyl)-3-fluoropyridin-2-yl]-5-chloro-2-methoxypyridine-3-sulfonamide], in series [2] (setting [6]), the IC50 turned out to be 55.3 nM. Moreover, in series [2] (setting [8]), the Ki amounted to 0.8 nM. Also, in series [3], the kinetic solubility at 90 min came to 245 µg/mL.
